Data reported in ChEMBL document CHEMBL1201862, “PubChem BioAssay data set” (2004).
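1) Cells in 96-well plates. 2) Compound, 48 h, 5 concentrations. 3) Linear interpolation between surrounding doses. 4) Unreached endpoint = highest concentration. GI50 = concentration required for 50% inhibition of growth.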 Calls of active or inactive are those of the source. Cut-off read from the data, not from the text of the source: active = GI50 up to about 1.1 µM and inactive = higher.

Legend:
Test in all cases: NCI tumour cell line growth inhibition, 48 h
[1] = tested on: TK-10
[2] = tested on: K562
[3] = tested on: OVCAR-3
[4] = tested on: SR
[5] = tested on: SK-MEL-5
[6] = tested on: MOLT-4
[7] = tested on: OVCAR-4
[8] = tested on: HT-29
[9] = tested on: LOX IMVI
[10] = tested on: ACHN
[11] = tested on: MDA-N
[12] = tested on: HCT-15
[13] = tested on: SF-295
[14] = tested on: OVCAR-8
[15] = tested on: EKVX
[16] = tested on: CCRF-CEM
[17] = tested on: SK-OV-3
[18] = tested on: KM12
[19] = tested on: DU-145
[20] = tested on: HL-60

Structure (SMILES)	GI50 [1]	GI50 [2]	GI50 [3]	GI50 [4]	GI50 [5]	GI50 [6]	GI50 [7]	GI50 [8]	GI50 [9]	GI50 [10]	GI50 [11]	GI50 [12]	GI50 [13]	GI50 [14]	GI50 [15]	GI50 [16]	GI50 [17]	GI50 [18]	GI50 [19]	GI50 [20]
O=C(NCCN1CCCCC1)c1ccc(I)cc1	> 100 µM (inactive)	> 100 µM (inactive)	> 100 µM (inactive)	> 100 µM (inactive)	33.9 µM (inactive)	> 100 µM (inactive)	> 100 µM (inactive)	39.5 µM (inactive)	> 100 µM (inactive)	> 100 µM (inactive)	> 100 µM (inactive)	> 100 µM	> 100 µM (inactive)	> 100 µM (inactive)	> 100 µM (inactive)	> 100 µM (inactive)	> 100 µM (inactive)	> 100 µM (inactive)	69.3 µM (inactive)	
COc1cc2c(cc1OCCN1C(=O)c3cccc4cccc(c34)C1=O)N=C[C@@H]1CCCN1C2=O	8.05 µM (inactive)	1.15 µM (inactive)	6.68 µM (inactive)	> 100 µM (inactive)	8.61 µM (inactive)	1.01 µM (active)	16 µM (inactive)	9.46 µM (inactive)	6.04 µM (inactive)	8.07 µM (inactive)	8.02 µM (inactive)	9.31 µM	13.7 µM (inactive)	8.57 µM (inactive)	9.68 µM (inactive)	0.236 µM (active)	24.3 µM (inactive)	14.3 µM (inactive)	8.89 µM (inactive)	
O=c1[nH]nc(-c2ccccc2)n1-n1cccc1	> 100 µM (inactive)	> 100 µM (inactive)	> 100 µM (inactive)	9.29 µM (inactive)	> 100 µM (inactive)	35.6 µM (inactive)	> 100 µM (inactive)	> 100 µM (inactive)	> 100 µM (inactive)	> 100 µM (inactive)	> 100 µM (inactive)	> 100 µM	> 100 µM (inactive)	> 100 µM (inactive)	> 100 µM (inactive)	50.8 µM (inactive)	> 100 µM (inactive)	> 100 µM (inactive)	> 100 µM (inactive)	
CN(C1=NCCO1)c1cccc2c1CCCC2	3.23 µM (inactive)	4.78 µM (inactive)		1.21 µM (inactive)	2.11 µM (inactive)	1.77 µM (inactive)	3.05 µM (inactive)	2.43 µM (inactive)	2.58 µM (inactive)	3.18 µM (inactive)	5.18 µM (inactive)	3.48 µM	4.35 µM (inactive)	5.3 µM (inactive)	8.55 µM (inactive)	1.15 µM (inactive)	4.71 µM (inactive)	6.97 µM (inactive)	9.55 µM (inactive)	4.41 µM (inactive)
CCNC1=C(NC(=O)CCl)C(=O)c2ccccc2C1=O	17.7 µM (inactive)	25.5 µM (inactive)	17.7 µM (inactive)	32.8 µM (inactive)	16.7 µM (inactive)	18.2 µM (inactive)	17 µM (inactive)	> 10 µM (inactive)		18 µM (inactive)	15.6 µM (inactive)	18.5 µM	19.4 µM (inactive)	20.1 µM (inactive)	16 µM (inactive)	20 µM (inactive)	> 10 µM (inactive)	17.1 µM (inactive)	> 10 µM (inactive)	34.1 µM (inactive)
CCOC(=O)c1nc2cc(C(F)(F)F)ccc2nc1Oc1ccc(C(=O)OC)cc1	> 100 µM (inactive)	> 100 µM (inactive)	> 100 µM (inactive)	> 100 µM (inactive)	> 100 µM (inactive)	> 100 µM (inactive)	78.7 µM (inactive)		83.8 µM (inactive)	> 100 µM (inactive)	> 100 µM (inactive)	51.5 µM	> 100 µM (inactive)	> 100 µM (inactive)	> 100 µM (inactive)	97.1 µM (inactive)		> 100 µM (inactive)	> 100 µM (inactive)	35.1 µM (inactive)
CN1CCN(C(=S)N(C)C(=O)c2ccc(Cl)cc2)CC1	> 100 µM (inactive)	> 100 µM (inactive)	> 100 µM (inactive)	> 10 µM (inactive)	> 100 µM (inactive)	> 100 µM (inactive)	> 100 µM (inactive)	> 100 µM (inactive)	> 100 µM (inactive)	0.132 µM (active)	> 100 µM (inactive)	> 100 µM	> 100 µM (inactive)	> 100 µM (inactive)		> 100 µM (inactive)		> 100 µM (inactive)	> 100 µM (inactive)	> 100 µM (inactive)
C1CCNCC1.O=C1NC(=S)N/C1=C/c1ccccc1O	> 100 µM (inactive)		> 100 µM (inactive)	> 100 µM (inactive)	> 100 µM (inactive)	73.1 µM (inactive)	> 100 µM (inactive)	> 100 µM (inactive)	> 100 µM (inactive)	> 100 µM (inactive)	> 100 µM (inactive)	> 100 µM	> 100 µM (inactive)	> 100 µM (inactive)	> 100 µM (inactive)	> 100 µM (inactive)	> 100 µM (inactive)		> 100 µM (inactive)	> 100 µM (inactive)
CCOC(=O)/C(C#N)=C/N(CC)/N=C/c1ccccc1	> 100 µM (inactive)	> 100 µM (inactive)	> 100 µM (inactive)	> 100 µM (inactive)	> 100 µM (inactive)	> 100 µM (inactive)	> 100 µM (inactive)	> 100 µM (inactive)		> 100 µM (inactive)	> 100 µM (inactive)	> 100 µM	69.8 µM (inactive)	81.3 µM (inactive)	> 100 µM (inactive)	> 100 µM (inactive)	> 100 µM (inactive)	> 100 µM (inactive)	> 100 µM (inactive)	> 100 µM (inactive)
O=C(CSc1nnc(-c2ccccn2)s1)N/N=C/c1ccccc1	89.1 µM (inactive)	> 100 µM (inactive)	> 100 µM (inactive)	> 100 µM (inactive)	> 100 µM (inactive)	63.5 µM (inactive)	> 100 µM (inactive)	> 100 µM (inactive)	> 100 µM (inactive)	89.3 µM (inactive)	> 100 µM (inactive)	> 100 µM	> 100 µM (inactive)	> 100 µM (inactive)		> 100 µM (inactive)	> 100 µM (inactive)	> 100 µM (inactive)	> 100 µM (inactive)	
CC(=O)Nc1ccc(/N=C2\C(c3ccccc3)=C(SC3=C(c4ccccc4)/C(=N\c4ccc(NC(C)=O)cc4)c4ccccc43)c3ccccc32)cc1	69.7 µM (inactive)	32.6 µM (inactive)	27.4 µM (inactive)	23.8 µM (inactive)	15.8 µM (inactive)	21.6 µM (inactive)	29.6 µM (inactive)	36.7 µM (inactive)	28.8 µM (inactive)	31.8 µM (inactive)	32.8 µM (inactive)	44.5 µM	31 µM (inactive)	29.6 µM (inactive)	34.5 µM (inactive)	24.7 µM (inactive)	35.8 µM (inactive)	27 µM (inactive)	37.8 µM (inactive)	
Fc1ccc2c(c1)nc1n2C(c2c(F)cccc2F)SC1 (configuration not stated)	46.7 µM (inactive)		28.6 µM (inactive)	18.1 µM (inactive)	21.8 µM (inactive)	25.8 µM (inactive)	48.2 µM (inactive)	31.6 µM (inactive)	45.7 µM (inactive)	> 100 µM (inactive)	28.2 µM (inactive)	38.3 µM	30 µM (inactive)	37.1 µM (inactive)	29.2 µM (inactive)		59.2 µM (inactive)	18.2 µM (inactive)	> 100 µM (inactive)	20.7 µM (inactive)
Cc1ccc2nc3[nH]nc(N)c3nc2c1	28 µM (inactive)		> 100 µM (inactive)	> 100 µM (inactive)	> 100 µM (inactive)	68.5 µM (inactive)	> 100 µM (inactive)	> 100 µM (inactive)	> 100 µM (inactive)	99.3 µM (inactive)	51.1 µM (inactive)	91 µM	> 100 µM (inactive)	> 100 µM (inactive)	20.9 µM (inactive)	> 100 µM (inactive)	> 100 µM (inactive)	54.6 µM (inactive)	> 100 µM (inactive)	
CCOC(=O)c1ccc(/N=N/N(C)C(=O)C(C)N)cc1 (configuration not stated)	> 100 µM (inactive)	> 100 µM (inactive)	> 100 µM (inactive)	36.1 µM (inactive)	> 100 µM (inactive)	43.7 µM (inactive)	> 100 µM (inactive)	> 100 µM (inactive)	> 100 µM (inactive)	49.5 µM (inactive)	78.3 µM (inactive)	> 100 µM	> 100 µM (inactive)	> 100 µM (inactive)	> 100 µM (inactive)	> 100 µM (inactive)		> 100 µM (inactive)	> 100 µM (inactive)	> 100 µM (inactive)
CCOC1CC(C)N(C(=O)c2ccccc2)O1 (configuration not stated)	> 100 µM (inactive)	> 100 µM (inactive)	> 100 µM (inactive)	> 100 µM (inactive)	> 100 µM (inactive)	> 100 µM (inactive)		> 100 µM (inactive)		> 100 µM (inactive)	> 100 µM (inactive)		> 100 µM (inactive)	> 100 µM (inactive)	> 100 µM (inactive)	> 100 µM (inactive)	> 100 µM (inactive)	> 100 µM (inactive)	> 100 µM (inactive)	> 100 µM (inactive)
